Results on three compounds are retold here after article PMC3115046, “Analyzing Airway Inflammation with Chemical Biology: Dissection of Acidic Mammalian Chitinase Function with a Selective Drug-like Inhibitor” (Chemistry & Biology, 2011).

The test system of one test is murine CHIT1 [mCHIT1]. To be noted: read-out: IC50 murine CHIT1; ref Zheng et al., 2005; Boot et al., 2001; cited from earlier work.
The next test has as its system allergen-challenged mice. The note with it: ref Matsumoto et al., 2009, cited from earlier work.
Test [1] addresses human chitotriosidase (hCHIT1) (Homo sapiens, UniProt Q13231). Briefly: Chitinase activity assay with fluorescent 4-MU substrate, hCHIT1. It counts as biochemical. The note with it: read-out: IC50 against hCHIT1.
Test [2] deals with Aspergillus fumigatus chitinase B1 (AfChiB1). On the set-up: method as in Schuttelkopf et al., 2011. The note with it: ref Schuttelkopf et al., 2011; cited from earlier work.

Sequence of human chitotriosidase (hCHIT1) (Q13231 22-466): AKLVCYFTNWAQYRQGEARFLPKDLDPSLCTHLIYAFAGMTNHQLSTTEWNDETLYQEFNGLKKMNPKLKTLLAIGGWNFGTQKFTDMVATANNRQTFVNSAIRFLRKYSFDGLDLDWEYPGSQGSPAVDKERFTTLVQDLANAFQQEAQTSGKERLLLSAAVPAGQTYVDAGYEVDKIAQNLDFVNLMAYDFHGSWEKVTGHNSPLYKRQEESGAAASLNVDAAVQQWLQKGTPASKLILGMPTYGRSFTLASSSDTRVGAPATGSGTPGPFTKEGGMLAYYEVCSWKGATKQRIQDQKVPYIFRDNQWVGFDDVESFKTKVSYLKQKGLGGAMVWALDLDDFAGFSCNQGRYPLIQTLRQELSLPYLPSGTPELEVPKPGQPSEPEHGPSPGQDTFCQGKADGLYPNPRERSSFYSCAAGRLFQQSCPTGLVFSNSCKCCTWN

Broadly, the IC50 is the concentration at which inhibition is half-maximal. Regarding `CC(=O)N[C@H]1[C@H](O[C@H]2[C@@H](O)[C@@H](NC(C)=O)[C@H](O[C@H]3[C@H](O)[C@H]4N=C(N(C)C)O[C@H]4[C@@H]3CO)O[C@@H]2CO)O[C@H](CO)[C@@H](O)[C@H]1O` [allosamidin], the IC50 in the test with murine CHIT1 [mCHIT1] was approximately 0.05 µM. For the same compound, the “eosinophilia in allergen-challenged mice” value in the test with allergen-challenged mice (Zhu et al., 2004) is “significantly reduced”.
Take `Cn1cnc2c1c(=O)n(CCCn1c(=O)c3c(ncn3C)n(C)c1=O)c(=O)n2C` [bisdionin C]: the IC50 in test [1] was determined as 8.3 ± 0.7 µM. In addition, in test [2], the “ligand efficiency against AfChiB1” value was −0.41 kcal·mol^−1·atom^−1.
As for `CNC1=N[C@@H]2[C@@H](O)[C@H](O[C@@H]3O[C@H](CO)[C@@H](O[C@@H]4O[C@H](CO)[C@@H](O)[C@@H](O)[C@H]4NC(C)=O)[C@@H](O)[C@H]3NC(C)=O)[C@@H](CO)[C@@H]2O1` [demethylallosamidin], in the test with allergen-challenged mice (Zhu et al., 2004), the “allergen or IL-13-induced airway hyperresponsiveness” value is recorded as “reduces” and the “eosinophilia in allergen-challenged mice” value is listed as “significantly reduced”. In addition, the “neutrophil recruitment in allergic mice” value with allergen-challenged mice is recorded as “did not result in neutrophil recruitment”.
